Measurements from article PMC5515969, “Effects of 31 FDA approved small-molecule kinase inhibitors on isolated rat liver mitochondria” (Archives of Toxicology, 2016).

system: isolated rat liver mitochondria; assay: Mitochondrial ROS production (CM-H2DCFDA); conditions: 1XCmax; DMSO treated samples set as 1

Row | Compound | ROS measured by CM-H2DCFDA at 1XCmax
1 | COc1cc2nccc(Oc3ccc(NC(=O)NC4CC4)c(Cl)c3)c2cc1C(N)=O [Lenvatinib] | 0
2 | COC(=O)c1ccc2c(c1)NC(=O)/C2=C(\Nc1ccc(N(C)C(=O)CN2CCN(C)CC2)cc1)c1ccccc1 [Nintedanib] | 0
3 | CC(=O)Nc1cccc(-n2c(=O)n(C3CC3)c(=O)c3c(Nc4ccc(I)cc4F)n(C)c(=O)c(C)c32)c1 [Trametinib] | 0

same assay, conditions: 2.5XCmax; DMSO treated samples set as 1

Row | Compound | ROS measured by CM-H2DCFDA at 2.5XCmax
4 | COc1cc2nccc(Oc3ccc(NC(=O)NC4CC4)c(Cl)c3)c2cc1C(N)=O [Lenvatinib] | 0
5 | COC(=O)c1ccc2c(c1)NC(=O)/C2=C(\Nc1ccc(N(C)C(=O)CN2CCN(C)CC2)cc1)c1ccccc1 [Nintedanib] | 0
6 | CC(=O)Nc1cccc(-n2c(=O)n(C3CC3)c(=O)c3c(Nc4ccc(I)cc4F)n(C)c(=O)c(C)c32)c1 [Trametinib] | 0

same assay, conditions: 5XCmax; DMSO treated samples set as 1

Row | Compound | ROS measured by CM-H2DCFDA at 5XCmax
7 | COc1cc2nccc(Oc3ccc(NC(=O)NC4CC4)c(Cl)c3)c2cc1C(N)=O [Lenvatinib] | 0
8 | COC(=O)c1ccc2c(c1)NC(=O)/C2=C(\Nc1ccc(N(C)C(=O)CN2CCN(C)CC2)cc1)c1ccccc1 [Nintedanib] | 0
9 | CC(=O)Nc1cccc(-n2c(=O)n(C3CC3)c(=O)c3c(Nc4ccc(I)cc4F)n(C)c(=O)c(C)c32)c1 [Trametinib] | 0

same assay, conditions: 10XCmax; DMSO treated samples set as 1

Row | Compound | ROS measured by CM-H2DCFDA at 10XCmax
10 | COc1cc2nccc(Oc3ccc(NC(=O)NC4CC4)c(Cl)c3)c2cc1C(N)=O [Lenvatinib] | 0
11 | COC(=O)c1ccc2c(c1)NC(=O)/C2=C(\Nc1ccc(N(C)C(=O)CN2CCN(C)CC2)cc1)c1ccccc1 [Nintedanib] | 0
12 | CC(=O)Nc1cccc(-n2c(=O)n(C3CC3)c(=O)c3c(Nc4ccc(I)cc4F)n(C)c(=O)c(C)c32)c1 [Trametinib] | 0

same assay, conditions: 20XCmax; DMSO treated samples set as 1

Row | Compound | ROS measured by CM-H2DCFDA at 20XCmax
13 | COc1cc2nccc(Oc3ccc(NC(=O)NC4CC4)c(Cl)c3)c2cc1C(N)=O [Lenvatinib] | 0
14 | COC(=O)c1ccc2c(c1)NC(=O)/C2=C(\Nc1ccc(N(C)C(=O)CN2CCN(C)CC2)cc1)c1ccccc1 [Nintedanib] | 0
15 | CC(=O)Nc1cccc(-n2c(=O)n(C3CC3)c(=O)c3c(Nc4ccc(I)cc4F)n(C)c(=O)c(C)c32)c1 [Trametinib] | 0

same assay, conditions: 30XCmax; DMSO treated samples set as 1

Row | Compound | ROS measured by CM-H2DCFDA at 30XCmax
16 | COc1cc2nccc(Oc3ccc(NC(=O)NC4CC4)c(Cl)c3)c2cc1C(N)=O [Lenvatinib] | 0
17 | COC(=O)c1ccc2c(c1)NC(=O)/C2=C(\Nc1ccc(N(C)C(=O)CN2CCN(C)CC2)cc1)c1ccccc1 [Nintedanib] | 0
18 | CC(=O)Nc1cccc(-n2c(=O)n(C3CC3)c(=O)c3c(Nc4ccc(I)cc4F)n(C)c(=O)c(C)c32)c1 [Trametinib] | 0

same assay, conditions: 50XCmax; DMSO treated samples set as 1

Row | Compound | ROS measured by CM-H2DCFDA at 50XCmax
19 | COc1cc2nccc(Oc3ccc(NC(=O)NC4CC4)c(Cl)c3)c2cc1C(N)=O [Lenvatinib] | 0
20 | COC(=O)c1ccc2c(c1)NC(=O)/C2=C(\Nc1ccc(N(C)C(=O)CN2CCN(C)CC2)cc1)c1ccccc1 [Nintedanib] | 0
21 | CC(=O)Nc1cccc(-n2c(=O)n(C3CC3)c(=O)c3c(Nc4ccc(I)cc4F)n(C)c(=O)c(C)c32)c1 [Trametinib] | 0

same assay, conditions: 100XCmax; DMSO treated samples set as 1

Row | Compound | ROS measured by CM-H2DCFDA at 100XCmax
22 | COc1cc2nccc(Oc3ccc(NC(=O)NC4CC4)c(Cl)c3)c2cc1C(N)=O [Lenvatinib] | 0
23 | COC(=O)c1ccc2c(c1)NC(=O)/C2=C(\Nc1ccc(N(C)C(=O)CN2CCN(C)CC2)cc1)c1ccccc1 [Nintedanib] | 0
24 | CC(=O)Nc1cccc(-n2c(=O)n(C3CC3)c(=O)c3c(Nc4ccc(I)cc4F)n(C)c(=O)c(C)c32)c1 [Trametinib] | 0

system: not given; assay: not given; conditions: BBW: black box warning; W&P: Warnings and Precautions; ref product labeling; cited from earlier work

Row | Compound | Labeling for cardiotoxicity
25 | CC(=O)Nc1cccc(-n2c(=O)n(C3CC3)c(=O)c3c(Nc4ccc(I)cc4F)n(C)c(=O)c(C)c32)c1 [Trametinib] | W&P: Cardiomyopathy

same assay, conditions: ref product labeling; cited from earlier work

Row | Compound | Potential for cardiotoxicity (based on labeling)
26 | COC(=O)c1ccc2c(c1)NC(=O)/C2=C(\Nc1ccc(N(C)C(=O)CN2CCN(C)CC2)cc1)c1ccccc1 [Nintedanib] | 0
27 | CC(=O)Nc1cccc(-n2c(=O)n(C3CC3)c(=O)c3c(Nc4ccc(I)cc4F)n(C)c(=O)c(C)c32)c1 [Trametinib] | 1

system: isolated rat liver mitochondria; assay: not given; conditions: 1XCmax; positive control alamethicin treated samples

Row | Compound | Cytochrome c release 1XCmax
28 | COc1cc2nccc(Oc3ccc(NC(=O)NC4CC4)c(Cl)c3)c2cc1C(N)=O [Lenvatinib] | 0
29 | COC(=O)c1ccc2c(c1)NC(=O)/C2=C(\Nc1ccc(N(C)C(=O)CN2CCN(C)CC2)cc1)c1ccccc1 [Nintedanib] | 0
30 | CC(=O)Nc1cccc(-n2c(=O)n(C3CC3)c(=O)c3c(Nc4ccc(I)cc4F)n(C)c(=O)c(C)c32)c1 [Trametinib] | 0

same assay, conditions: 2.5XCmax; positive control alamethicin treated samples

Row | Compound | Cytochrome c release 2.5XCmax
31 | COc1cc2nccc(Oc3ccc(NC(=O)NC4CC4)c(Cl)c3)c2cc1C(N)=O [Lenvatinib] | 0
32 | COC(=O)c1ccc2c(c1)NC(=O)/C2=C(\Nc1ccc(N(C)C(=O)CN2CCN(C)CC2)cc1)c1ccccc1 [Nintedanib] | 0
33 | CC(=O)Nc1cccc(-n2c(=O)n(C3CC3)c(=O)c3c(Nc4ccc(I)cc4F)n(C)c(=O)c(C)c32)c1 [Trametinib] | 0

same assay, conditions: 5XCmax; positive control alamethicin treated samples

Row | Compound | Cytochrome c release 5XCmax
34 | COc1cc2nccc(Oc3ccc(NC(=O)NC4CC4)c(Cl)c3)c2cc1C(N)=O [Lenvatinib] | 0
35 | COC(=O)c1ccc2c(c1)NC(=O)/C2=C(\Nc1ccc(N(C)C(=O)CN2CCN(C)CC2)cc1)c1ccccc1 [Nintedanib] | 0
36 | CC(=O)Nc1cccc(-n2c(=O)n(C3CC3)c(=O)c3c(Nc4ccc(I)cc4F)n(C)c(=O)c(C)c32)c1 [Trametinib] | 0

same assay, conditions: 10XCmax; positive control alamethicin treated samples

Row | Compound | Cytochrome c release 10XCmax
37 | COc1cc2nccc(Oc3ccc(NC(=O)NC4CC4)c(Cl)c3)c2cc1C(N)=O [Lenvatinib] | 0
38 | COC(=O)c1ccc2c(c1)NC(=O)/C2=C(\Nc1ccc(N(C)C(=O)CN2CCN(C)CC2)cc1)c1ccccc1 [Nintedanib] | 0
39 | CC(=O)Nc1cccc(-n2c(=O)n(C3CC3)c(=O)c3c(Nc4ccc(I)cc4F)n(C)c(=O)c(C)c32)c1 [Trametinib] | 0

same assay, conditions: 20XCmax; positive control alamethicin treated samples

Row | Compound | Cytochrome c release 20XCmax
40 | COc1cc2nccc(Oc3ccc(NC(=O)NC4CC4)c(Cl)c3)c2cc1C(N)=O [Lenvatinib] | 0
41 | COC(=O)c1ccc2c(c1)NC(=O)/C2=C(\Nc1ccc(N(C)C(=O)CN2CCN(C)CC2)cc1)c1ccccc1 [Nintedanib] | 0
42 | CC(=O)Nc1cccc(-n2c(=O)n(C3CC3)c(=O)c3c(Nc4ccc(I)cc4F)n(C)c(=O)c(C)c32)c1 [Trametinib] | 0

same assay, conditions: 30XCmax; positive control alamethicin treated samples

Row | Compound | Cytochrome c release 30XCmax
43 | COc1cc2nccc(Oc3ccc(NC(=O)NC4CC4)c(Cl)c3)c2cc1C(N)=O [Lenvatinib] | 0
44 | COC(=O)c1ccc2c(c1)NC(=O)/C2=C(\Nc1ccc(N(C)C(=O)CN2CCN(C)CC2)cc1)c1ccccc1 [Nintedanib] | 0
45 | CC(=O)Nc1cccc(-n2c(=O)n(C3CC3)c(=O)c3c(Nc4ccc(I)cc4F)n(C)c(=O)c(C)c32)c1 [Trametinib] | 0

same assay, conditions: 50XCmax; positive control alamethicin treated samples

Row | Compound | Cytochrome c release 50XCmax
46 | COc1cc2nccc(Oc3ccc(NC(=O)NC4CC4)c(Cl)c3)c2cc1C(N)=O [Lenvatinib] | 0
47 | COC(=O)c1ccc2c(c1)NC(=O)/C2=C(\Nc1ccc(N(C)C(=O)CN2CCN(C)CC2)cc1)c1ccccc1 [Nintedanib] | 0
48 | CC(=O)Nc1cccc(-n2c(=O)n(C3CC3)c(=O)c3c(Nc4ccc(I)cc4F)n(C)c(=O)c(C)c32)c1 [Trametinib] | 0

same assay, conditions: 100XCmax; positive control alamethicin treated samples

Row | Compound | Cytochrome c release 100XCmax
49 | COc1cc2nccc(Oc3ccc(NC(=O)NC4CC4)c(Cl)c3)c2cc1C(N)=O [Lenvatinib] | 0
50 | COC(=O)c1ccc2c(c1)NC(=O)/C2=C(\Nc1ccc(N(C)C(=O)CN2CCN(C)CC2)cc1)c1ccccc1 [Nintedanib] | 0
51 | CC(=O)Nc1cccc(-n2c(=O)n(C3CC3)c(=O)c3c(Nc4ccc(I)cc4F)n(C)c(=O)c(C)c32)c1 [Trametinib] | 0
